Results reported in patent US12157746B2, “Tetrahydro-1H-pyrazino[2,1-a]isoindolylquinoline compounds for the treatment of autoimmune disease” (F. HOFFMANN-LA ROCHE AG, priority 2018, dated 2024).

target: T1, human TLR8 (Homo sapiens, UniProt Q9NR97); experiment: HEK293-Blue-hTLR-8 cells assay; format: cell-based; conditions: HEK293-Blue-hTLR8 cells, R848 stimulation, 20 hrs, SEAP reporter; read-out: HEK/hTLR8 IC50
T1 sequence (Q9NR97 27-1041): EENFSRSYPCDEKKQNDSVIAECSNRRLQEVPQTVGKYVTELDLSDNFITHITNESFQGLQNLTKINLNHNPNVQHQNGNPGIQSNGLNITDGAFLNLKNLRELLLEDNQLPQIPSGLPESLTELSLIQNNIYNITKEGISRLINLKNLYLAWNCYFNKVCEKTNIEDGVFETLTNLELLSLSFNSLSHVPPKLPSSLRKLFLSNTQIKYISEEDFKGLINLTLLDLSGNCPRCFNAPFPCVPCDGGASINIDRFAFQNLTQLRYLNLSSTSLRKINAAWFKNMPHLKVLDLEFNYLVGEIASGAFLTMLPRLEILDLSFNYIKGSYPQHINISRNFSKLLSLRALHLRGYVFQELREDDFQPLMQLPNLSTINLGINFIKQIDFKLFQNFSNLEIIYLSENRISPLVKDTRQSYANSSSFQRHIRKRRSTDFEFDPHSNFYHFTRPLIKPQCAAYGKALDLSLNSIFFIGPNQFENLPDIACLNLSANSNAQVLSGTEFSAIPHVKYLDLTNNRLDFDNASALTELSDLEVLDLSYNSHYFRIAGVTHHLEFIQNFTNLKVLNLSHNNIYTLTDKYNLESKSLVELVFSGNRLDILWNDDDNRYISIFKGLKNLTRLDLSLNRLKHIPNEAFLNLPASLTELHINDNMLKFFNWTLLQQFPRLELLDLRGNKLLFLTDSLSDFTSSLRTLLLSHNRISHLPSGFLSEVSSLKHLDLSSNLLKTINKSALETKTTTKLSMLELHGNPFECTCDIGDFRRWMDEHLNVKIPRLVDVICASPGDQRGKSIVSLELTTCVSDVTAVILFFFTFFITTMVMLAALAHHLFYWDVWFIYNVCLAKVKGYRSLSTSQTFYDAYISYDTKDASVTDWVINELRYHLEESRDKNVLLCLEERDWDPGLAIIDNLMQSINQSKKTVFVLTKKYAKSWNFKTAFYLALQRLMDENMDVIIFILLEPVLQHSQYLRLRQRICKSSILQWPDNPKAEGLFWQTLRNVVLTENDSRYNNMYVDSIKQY
Summary of the method: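 Antagonism read out in HEK293-Blue-hTLR8 cells carrying an NF-κB/AP-1-driven SEAP reporter, stimulated with R848 (10 μL of 60 uM stock added) alongside serially diluted compound (1% DMSO), 20 h at 37° C. Supernatant SEAP measured with QUANTI-Blue after 2 h at 37° C, absorbance at 620-655 nm.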

SMILES	IC50
C[C@@H]1CN(c2ccc(C#N)c3ncccc23)C[C@@H]2c3ccc(N4CCNCC4)cc3CN12 [Example 1, 5-[(4R,10bS)-4-methyl-8-piperazin-1-yl-3,4,6,10b-tetrahydro-1H-pyrazino[2,1-a]isoindol-2-yl]quinoline-8-carbonitrile]	< 3.2 nM
C[C@H]1CN(c2ccc(C#N)c3ncccc23)C[C@H]2c3ccc(N4CCNCC4)cc3CN12 [Example 2, 5-[(4S,10bR)-4-methyl-8-piperazin-1-yl-3,4,6,10b-tetrahydro-1H-pyrazino[2,1-a]isoindol-2-yl]quinoline-8-carbonitrile]	< 3.2 nM
N#Cc1ccc(N2CCN3Cc4cc(N5CCNCC5)ccc4C3C2)c2cccnc12 (centres unmarked) [Example 3, 5-(8-piperazin-1-yl-3,4,6,10b-tetrahydro-1H-pyrazino[2,1-a]isoindol-2-yl)quinoline-8-carbonitrile]	< 3.2 nM
C[C@@H]1CN(c2ccc(C#N)c3ncccc23)C[C@@H]2c3ccc(N[C@@H]4CNCCOC4)cc3CN12 [Example 56A, 5-[(4R,10bS)-4-methyl-8-[[(6R)-1,4-oxazepan-6-yl]amino]-3,4,6,10b-tetrahydro-1H-pyrazino[2,1-a]isoindol-2-yl]quinoline-8-carbonitrile]	< 3.2 nM
C[C@@H]1CN(c2ccc(C#N)c3ncccc23)C[C@@H]2c3ccc(N[C@H]4CNCCOC4)cc3CN12 [Example 56B, 5-[(4R,10bS)-4-methyl-8-[[(6S)-1,4-oxazepan-6-yl]amino]-3,4,6,10b-tetrahydro-1H-pyrazino[2,1-a]isoindol-2-yl]quinoline-8-carbonitrile]	< 3.2 nM
C[C@@H]1CN(c2ccc(C#N)c3ncccc23)C[C@@H]2c3ccc(NCC4COCCN4)cc3CN12 (stereo partly drawn) [Example 57, 5-[(4R,10bS)-4-methyl-8-(morpholin-3-ylmethylamino)-3,4,6,10b-tetrahydro-1H-pyrazino[2,1-a]isoindol-2-yl]quinoline-8-carbonitrile]	< 3.2 nM
C[C@@H]1CN(c2ccc(C#N)c3ncccc23)C[C@@H]2c3ccc(NC[C@@H]4CNCCO4)cc3CN12 [Example 58, 5-[(4R,10bS)-4-methyl-8-[[(2S)-morpholin-2-yl]methylamino]-3,4,6,10b-tetrahydro-1H-pyrazino[2,1-a]isoindol-2-yl]quinoline-8-carbonitrile]	< 3.2 nM
C[C@@H]1CN(c2ccc(C#N)c3ncccc23)C[C@@H]2c3ccc(NC[C@H]4CNCCO4)cc3CN12 [Example 59, 5-[(4R,10bS)-4-methyl-8-[[(2R)-morpholin-2-yl]methylamino]-3,4,6,10b-tetrahydro-1H-pyrazino[2,1-a]isoindol-2-yl]quinoline-8-carbonitrile]	< 3.2 nM
CO[C@@H]1CNC[C@@H]1Nc1ccc2c(c1)CN1[C@H](C)CN(c3ccc(C#N)c4ncccc34)C[C@H]21 [Example 60, 5-[(4R,10bS)-8-[[(3S,4R)-4-methoxypyrrolidin-3-yl]amino]-4-methyl-3,4,6,10b-tetrahydro-1H-pyrazino[2,1-a]isoindol-2-yl]quinoline-8-carbonitrile]	< 3.2 nM
CO[C@H]1CNC[C@H]1Nc1ccc2c(c1)CN1[C@H](C)CN(c3ccc(C#N)c4ncccc34)C[C@H]21 [Example 61, 5-[(4R,10bS)-8-[[(3R,4S)-4-methoxypyrrolidin-3-yl]amino]-4-methyl-3,4,6,10b-tetrahydro-1H-pyrazino[2,1-a]isoindol-2-yl]quinoline-8-carbonitrile]	< 3.2 nM
CO[C@H]1CNC[C@@H]1Nc1ccc2c(c1)CN1[C@H](C)CN(c3ccc(C#N)c4ncccc34)C[C@H]21 [Example 62, 5-[(4R,10bS)-8-[[(3S,4S)-4-methoxypyrrolidin-3-yl]amino]-4-methyl-3,4,6,10b-tetrahydro-1H-pyrazino[2,1-a]isoindol-2-yl]quinoline-8-carbonitrile]	< 3.2 nM
CO[C@@H]1CNC[C@H]1Nc1cc2c(cc1C)[C@H]1CN(c3ccc(C#N)c4ncccc34)C[C@@H](C)N1C2 [Example 63, 5-[(4R,10bS)-8-[[(3R,4R)-4-methoxypyrrolidin-3-yl]amino]-4,9-dimethyl-3,4,6,10b-tetrahydro-1H-pyrazino[2,1-a]isoindol-2-yl]quinoline-8-carbonitrile]	6.2 nM
CO[C@H]1CNC[C@@H]1N(C)c1ccc2c(c1)CN1[C@H](C)CN(c3ccc(C#N)c4ncccc34)C[C@H]21 [Example 64, 5-[(4R,10bS)-8-[[(3S,4S)-4-methoxypyrrolidin-3-yl]-methyl-amino]-4-methyl-3,4,6,10b-tetrahydro-1H-pyrazino[2,1-a]isoindol-2-yl]quinoline-8-carbonitrile]	< 3.2 nM
C[C@@H]1CN(c2ccc(C#N)c3ncccc23)C[C@@H]2c3ccc(N[C@@H]4CCCNC4)cc3CN12 [Example 65, 5-[(4R,10bS)-4-methyl-8-[[(3R)-3-piperidyl]amino]-3,4,6,10b-tetrahydro-1H-pyrazino[2,1-a]isoindol-2-yl]quinoline-8-carbonitrile]	< 3.2 nM
CO[C@H]1CNCC[C@H]1Nc1ccc2c(c1)CN1[C@H](C)CN(c3ccc(C#N)c4ncccc34)C[C@H]21 [Example 66, 5-[(4R,10bS)-8-[[(3S,4R)-3-methoxy-4-piperidyl]amino]-4-methyl-3,4,6,10b-tetrahydro-1H-pyrazino[2,1-a]isoindol-2-yl]quinoline-8-carbonitrile]	< 3.2 nM
C[C@@H]1CN(c2ccc(C#N)c3ncccc23)C[C@@H]2c3ccc(NCCN4CC[C@H](O)C4)cc3CN12 [Example 68, 5-[(4R,10bS)-8-[2-[(3S)-3-hydroxypyrrolidin-1-yl]ethylamino]-4-methyl-3,4,6,10b-tetrahydro-1H-pyrazino[2,1-a]isoindol-2-yl]quinoline-8-carbonitrile]	< 3.2 nM
C[C@@H]1CN(c2ccc(C#N)c3ncccc23)C[C@@H]2c3ccc(NCC4(F)CNC4)cc3CN12 [Example 69, 5-[(4R,10bS)-8-[(3-fluoroazetidin-3-yl)methylamino]-4-methyl-3,4,6,10b-tetrahydro-1H-pyrazino[2,1-a]isoindol-2-yl]quinoline-8-carbonitrile]	< 3.2 nM
C[C@@H]1CN(c2ccc(C#N)c3ncccc23)C[C@@H]2c3ccc(NC[C@@H]4C[C@H](F)CN4)cc3CN12 [Example 70, 5-[(4R,10bS)-8-[[(2S,4S)-4-fluoropyrrolidin-2-yl]methylamino]-4-methyl-3,4,6,10b-tetrahydro-1H-pyrazino[2,1-a]isoindol-2-yl]quinoline-8-carbonitrile]	0.5 nM
C[C@@H]1CN(c2ccc(C#N)c3ncccc23)C[C@@H]2c3ccc(N4C[C@@H]5CNCCN5C4=O)cc3CN12 [Example 71, 5-[(4R,10bS)-8-[(8aS)-3-oxo-1,5,6,7,8,8a-hexahydroimidazo[1,5-a]pyrazin-2-yl]-4-methyl-3,4,6,10b-tetrahydro-1H-pyrazino[2,1-a]isoindol-2-yl]quinoline-8-carbonitrile]	< 3.2 nM
C[C@@H]1CN(c2ccc(C#N)c3ncccc23)C[C@@H]2c3ccc(N4C[C@H]5CNCCN5C4=O)cc3CN12 [Example 72, 5-[(4R,10bS)-8-[(8aR)-3-oxo-1,5,6,7,8,8a-hexahydroimidazo[1,5-a]pyrazin-2-yl]-4-methyl-3,4,6,10b-tetrahydro-1H-pyrazino[2,1-a]isoindol-2-yl]quinoline-8-carbonitrile]	< 3.2 nM
C[C@@H]1CN(c2ccc(C#N)c3ncccc23)C[C@@H]2c3ccc(OC[C@@H]4C[C@H](F)CN4)cc3CN12 [Example 74, 5-[(4R,10bS)-8-[[(2S,4S)-4-fluoropyrrolidin-2-yl]methoxy]-4-methyl-3,4,6,10b-tetrahydro-1H-pyrazino[2,1-a]isoindol-2-yl]quinoline-8-carbonitrile]	< 0.3 nM
Cc1ccc(N2C[C@@H](C)N3Cc4cc(N[C@H]5CNC[C@H]5F)ccc4[C@H]3C2)c2cccnc12 [Example 75, (4R,10bS)—N-[(3S,4R)-4-fluoropyrrolidin-3-yl]-4-methyl-2-(8-methyl-5-quinolyl)-3,4,6,10b-tetrahydro-1H-pyrazino[2,1-a]isoindol-8-amine]	12.4 nM
Cc1ccc(N2C[C@@H](C)N3Cc4cc(N[C@H]5CNC[C@H]5F)ccc4[C@H]3C2)c2nccnc12 [Example 76, (4R,10bS)—N-[(3S,4R)-4-fluoropyrrolidin-3-yl]-4-methyl-2-(8-methylquinoxalin-5-yl)-3,4,6,10b-tetrahydro-1H-pyrazino[2,1-a]isoindol-8-amine]	12.7 nM
